Paper PMC12064818, “A general assay platform to study protein pharmacology using ligand-dependent structural dynamics” (Nature Communications, 2025)

What was measured:
[1] = molecular target: T1, NLuc (Oplophorus gracilirostris, UniProt Q9GV45, A31E/A60N/A81I/F95D/I117V/K70R/L54V/L99Q/M102K/N193R/P142E/Q151K/Q38R/Q45L/V71I/Y165I); type: biochemical; conditions: - ATP
T1 construct: His tag (inferred from IMAC purification); made in house; host or cells: E. coli
Summary of the method: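 Luminescence was read 10 min after Nano-Glo reagent addition. Enzyme was 1 nM NLuc in PBS/0.05% IGEPAL buffer, with or without ATP.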

[2] = molecular target: P. pyralis FLuc (Photinus pyralis, UniProt P08659); assay: FLuc enzymatic luminescence assay, P. pyralis FLuc; type: biochemical; conditions: FLuc enzymatic assay, Clade S follow-up; for IC50: read-out: IC50 or SDR50 (mM) FLuc E
Summary of the method: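 Runs with and without 10 µM ATP: compounds were pre-incubated with FLuc (1–10 nM, PBS pH 7.4) at ambient temperature, light-protected, for 30–60 min. Luminescence was imaged 5 min after adding 10 µM D-luciferin (final). Inhibition was scaled between DMSO neutral and no-enzyme controls.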

[3] = molecular target: FLuc-C-NLuc (firefly luciferase) (Photinus pyralis, UniProt P08659, form not given/L550V); assay: SDR assay, FLuc-C-NLuc; conditions: - ATP
[4] = molecular target: FLuc-C-HiBiT (firefly luciferase) (Photinus pyralis, UniProt P08659, form not given/L550V); assay: SDR assay, FLuc-C-HiBiT; conditions: SDR max. response, clade S
FLuc-C-HiBiT (firefly luciferase), sequence (P08659 2-550 L550V, form open): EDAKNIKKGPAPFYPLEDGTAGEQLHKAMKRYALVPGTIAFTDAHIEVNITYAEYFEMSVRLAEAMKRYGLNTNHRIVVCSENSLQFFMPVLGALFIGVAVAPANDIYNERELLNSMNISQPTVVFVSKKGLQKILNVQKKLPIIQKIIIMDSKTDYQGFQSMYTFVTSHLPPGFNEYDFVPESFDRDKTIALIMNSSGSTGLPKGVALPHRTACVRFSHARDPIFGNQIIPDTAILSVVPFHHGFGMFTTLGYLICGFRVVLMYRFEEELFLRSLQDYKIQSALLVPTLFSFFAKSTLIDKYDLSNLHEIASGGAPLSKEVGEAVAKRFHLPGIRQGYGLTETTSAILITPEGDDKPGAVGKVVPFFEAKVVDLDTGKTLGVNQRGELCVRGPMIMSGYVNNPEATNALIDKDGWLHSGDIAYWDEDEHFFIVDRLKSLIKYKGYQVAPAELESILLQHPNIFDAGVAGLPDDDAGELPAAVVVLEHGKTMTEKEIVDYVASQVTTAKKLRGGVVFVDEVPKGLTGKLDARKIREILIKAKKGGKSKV

T1 sequence (Q9GV45 other isoform, or with tags, fused parts or gaps with the stated changes): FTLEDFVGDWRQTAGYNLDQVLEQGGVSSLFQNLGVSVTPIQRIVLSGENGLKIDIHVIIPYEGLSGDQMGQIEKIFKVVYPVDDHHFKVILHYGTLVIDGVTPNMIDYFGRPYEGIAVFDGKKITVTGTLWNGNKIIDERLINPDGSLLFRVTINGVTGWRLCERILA
P. pyralis FLuc, sequence (P08659 whole entry): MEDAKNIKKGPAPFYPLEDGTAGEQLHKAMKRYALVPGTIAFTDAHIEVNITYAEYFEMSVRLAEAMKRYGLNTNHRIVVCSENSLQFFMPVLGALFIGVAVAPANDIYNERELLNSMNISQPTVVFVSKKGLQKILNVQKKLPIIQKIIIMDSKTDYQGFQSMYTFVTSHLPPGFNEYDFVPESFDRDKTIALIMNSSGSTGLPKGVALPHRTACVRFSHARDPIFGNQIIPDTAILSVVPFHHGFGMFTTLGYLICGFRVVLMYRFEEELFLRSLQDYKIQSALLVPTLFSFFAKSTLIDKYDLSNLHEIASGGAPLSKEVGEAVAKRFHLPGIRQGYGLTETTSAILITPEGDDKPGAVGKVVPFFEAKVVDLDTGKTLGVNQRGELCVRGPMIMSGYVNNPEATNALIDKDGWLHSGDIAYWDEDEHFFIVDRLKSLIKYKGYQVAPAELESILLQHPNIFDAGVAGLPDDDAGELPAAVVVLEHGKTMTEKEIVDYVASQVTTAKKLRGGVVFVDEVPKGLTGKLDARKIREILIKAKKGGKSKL
FLuc-C-NLuc (firefly luciferase), sequence (P08659 2-550 L550V, form open): as the sequence (P08659 2-550 L550V, form open) above

Compound	Efficacy (%) NLuc (- ATP) [1]	Efficacy (%) FLuc E [2]	pIC50 or pSDR50 FLuc E [2]	IC50 [2]	Efficacy (%) FLuc-C-NLuc SDR (-ATP) [3]	% Activity (max response, + ATP) [4]	% Activity (max response, - ATP) [4]
O=C(NCCC1=CCCCC1)C1CCN(C(=O)c2ncn3c2COC(c2ccc(Cl)cc2)C3)CC1 (centres unmarked) [NCGC00449848-01]	0.00%	-32.57%	4.91	0.0124 mM	0.00%	23.50%	-6.50%
O=C(NCc1ccccc1)C1CCN(C(=O)c2ncn3c2COC(c2ccc(Cl)cc2)C3)CC1 (centres unmarked) [NCGC00449849-01]	0.00%	-35.02%	4.91	0.0124 mM	0.00%	28.50%	0.00%
Cc1ccc(CNC(=O)C2CCN(C(=O)c3ncn4c3COC(c3ccc(Cl)cc3)C4)CC2)cc1 (centres unmarked) [NCGC00449850-01]	0.00%	-21.67%	–	–	0.00%	22.50%	0.00%
O=C(NCc1ccccc1F)C1CCN(C(=O)c2ncn3c2COC(c2ccc(Cl)cc2)C3)CC1 (centres unmarked) [NCGC00449851-01]	0.00%	-40.26%	4.91	0.0124 mM	0.00%	18.50%	0.00%
O=C(NCc1ccc(F)cc1)C1CCN(C(=O)c2ncn3c2COC(c2ccc(Cl)cc2)C3)CC1 (centres unmarked) [NCGC00449852-01]	0.00%	-25.63%	4.86	0.0139 mM	0.00%	32.50%	0.00%
CC(NC(=O)C1CCN(C(=O)c2ncn3c2COC(c2ccc(Cl)cc2)C3)CC1)c1ccccc1 (centres unmarked) [NCGC00449853-01]	0.00%	-16.52%	–	–	0.00%	0.00%	0.00%
O=C(NCCc1ccccc1)C1CCN(C(=O)c2ncn3c2COC(c2ccc(Cl)cc2)C3)CC1 (centres unmarked) [NCGC00449854-01]	0.00%	-25.47%	–	–	0.00%	0.00%	0.00%
O=C(NCC1CCCCC1)C1CCN(C(=O)c2ncn3c2COC(c2ccc(Cl)cc2)C3)CC1 (centres unmarked) [NCGC00449855-01]	0.00%	-13.13%	–	–	0.00%	16.00%	0.00%
COc1ccc(C2Cn3cnc(C(=O)N4CCC(C(=O)NC(C)C)CC4)c3CO2)cc1 (centres unmarked) [NCGC00449857-01]	0.00%	-19.61%	–	–	0.00%	13.32%	0.00%
COc1ccc(C2Cn3cnc(C(=O)N4CCC(C(=O)NCC(C)C)CC4)c3CO2)cc1 (centres unmarked) [NCGC00449858-01]	0.00%	-13.26%	–	–	0.00%	14.32%	0.00%
COc1ccc(C2Cn3cnc(C(=O)N4CCC(C(=O)NC5CCCC5)CC4)c3CO2)cc1 (centres unmarked) [NCGC00449859-01]	0.00%	0.00%	–	–	0.00%	0.00%	0.00%
COc1ccc(C2Cn3cnc(C(=O)N4CCC(C(=O)NC5CCCCC5)CC4)c3CO2)cc1 (centres unmarked) [NCGC00449860-01]	0.00%	0.00%	–	–	0.00%	0.00%	0.00%
COc1ccc(C2Cn3cnc(C(=O)N4CCC(C(=O)NC5CCC(C)CC5)CC4)c3CO2)cc1 (centres unmarked) [NCGC00449861-01]	0.00%	0.00%	–	–	0.00%	14.50%	0.00%
COc1ccc(C2Cn3cnc(C(=O)N4CCC(C(=O)NC5CCCCCC5)CC4)c3CO2)cc1 (centres unmarked) [NCGC00449862-01]	-12.50%	0.00%	–	–	0.00%	0.00%	0.00%
CCCCNC(=O)C1CCN(C(=O)c2ncn3c2COC(c2ccc(OC)cc2)C3)CC1 (centres unmarked) [NCGC00449864-01]	0.00%	-10.96%	–	–	0.00%	0.00%	0.00%
COc1ccc(C2Cn3cnc(C(=O)N4CCC(C(=O)NCc5ccccc5)CC4)c3CO2)cc1 (centres unmarked) [NCGC00449865-01]	0.00%	0.00%	–	–	0.00%	0.00%	0.00%
COc1ccc(C2Cn3cnc(C(=O)N4CCC(C(=O)NCc5ccc(C)cc5)CC4)c3CO2)cc1 (centres unmarked) [NCGC00449866-01]	-22.39%	0.00%	–	–	0.00%	0.00%	-10.00%
COc1ccc(C2Cn3cnc(C(=O)N4CCC(C(=O)NCCc5ccccc5)CC4)c3CO2)cc1 (centres unmarked) [NCGC00449871-01]	0.00%	0.00%	–	–	0.00%	0.00%	0.00%
COc1ccc(C2Cn3cnc(C(=O)N4CCC(C(=O)NCC5CCCCC5)CC4)c3CO2)cc1 (centres unmarked) [NCGC00449872-01]	0.00%	-14.52%	–	–	0.00%	0.00%	0.00%
COc1ccc(C2Cn3cnc(C(=O)N4CCC(C(=O)NCC5CC5)CC4)c3CO2)cc1 (centres unmarked) [NCGC00449873-01]	0.00%	0.00%	–	–	0.00%	0.00%	0.00%
COCCCNC(=O)C1CCN(C(=O)c2ncn3c2COC(c2ccc(OC)cc2)C3)CC1 (centres unmarked) [NCGC00449877-01]	0.00%	0.00%	–	–	0.00%	0.00%	0.00%
COc1ccc(C2Cn3cnc(C(=O)N4CCC(C(=O)NCc5cccc(C)c5)CC4)c3CO2)cc1 (centres unmarked) [NCGC00449879-01]	0.00%	0.00%	–	–	0.00%	0.00%	0.00%
Cc1ccc(C2Cn3cnc(C(=O)N4CCC(C(=O)NC5CCCC5)CC4)c3CO2)cc1 (centres unmarked) [NCGC00449881-01]	0.00%	-51.50%	4.96	0.0111 mM	0.00%	73.27%	0.00%
